# Measurements taken from patent EP0182152B1, “Antitumor antibiotics (LL-E33288 Complex)” (AMERICAN CYANAMID COMPANY, priority 1984, dated 1986).
# Legend:
# [1] = system: lymphocytic leukemia L1210; experiment: Lymphocytic Leukemia L1210 Test; type: in vivo, BDF1 mice; conditions: Table XI, control 9 days
# Description: (§1) Certain in vivo testing systems and protocols have been developed by the National Cancer Institute for testing compounds to determine their suitability as anti-neoplastic agents. These have been reported in "Cancer Chemotherapy Reports", Part III, Vol. 3, No. 2 (1972), Geran, et al. These protocols have established standardized screening tests which are generally followed in the field of testing for antitumor agents. Of these systems, lymphocytic leukemia P388, melanotic melanoma B16, L1210 leukemia and colon 26 adenocarcinoma are particularly significant to the present invention. These neoplasms are utilized for testing as transplantable tumors in mice. Generally, significant anti-tumor activity, shown in these protocols by a percentage increase of mean survival times of the treated animals (T) over the control animals (C), is indicative of similar results in human leukemias and solid tumors.
# The animals used were BDF1 mice, all of one sex, weighing a minimum of 17 g and all within a 3 g weight range. There were 6 mice in each test group and 18 in control groups. The tumor transplant was by intraperitoneal injection of 0.5 ml of lymphocytic leukemia L1210 at a concentration of 10^5 cells per mouse. LL-E33288 antibiotics were tested in the L1210 system both as the individual β1-Br component and as a complex of all components (Bromo-complex). The test compounds were administered on days 1, 5 and 9 or days 1 through 9 (relative to tumor inoculation) at various doses. The mice were weighed and survivors recorded on a regular basis for 30 days. The median survival time and the ratio of survival time for treated (T)/control (C) animals were calculated. The positive control compound was 1,4-dihydroxy-5,8-bis[[2-(2-hydroxyethylamino)ethyl]amino]anthraquinone dihydrochloride or Cisplatin given intraperitoneally at the indicated dose. If T/C X 100 (%) is 125 or over, the tested compound is considered to have significant anti-tumor activity.
# (§2) In the same manner, the following iodo-components were tested for antineoplastic activity.
# melanotic melanoma B16 = experiment: Melanotic Melanoma B16 Test; type: in vivo, BDF1 mice; conditions: Table X, control value not given
# Description: as §1
# The animals used were BDF1 mice, all of the same sex, weighing a minimum of 17 g and all within a 3 g weight range. There are normally 6 animals per test group. A 1 g portion of melanotic melanoma β16 tumor was homogenized in 10 ml of cold balanced salt solution and a 0.5 ml aliquot of the homogenate was implanted intraperitoneally into each of the test mice. LL-E33288 antibiotics were tested in the β16 system both as the individual β1-Br and γ1-Br components and as a complex of all components (Bromo-complex). The test compounds were administered intraperitioneally on days 1 through 9 (relative to tumor inoculation) at various doses. The mice were weighed and survivors recorded on a regular basis for 60 days. The median survival time and the ratio of survival time for treated (T)/control (C) animals were calculated. The positive control compounds were Cisplatin or Adriamycin. The results of this test appear in Table V. If T/C X 100 (%) is 125 or over, the tested compound is considered to have significant anti-tumor activity.
# as §2
# Colon 26 tumor = experiment: Colon 26 Adenocarcinoma Test; type: in vivo, CD2F1 female mice; conditions: Table XII, control 18.5 days
# Description: as §1
# The animals used were CD2F1 female mice weighing a minimum of 17 g and all within a 3 g weight range. There were 5 or 6 mice per test group with three groups of 5 or 6 animals used as untreated controls for each test. The tumor implant was by intraperitoneal (or subcutaneous) injection of 0.5 ml of a 2% Colon 26 tumor brei in Eagle's MEM medium containing antibiotics. LL-E33288 antibiotics were tested in the Colon 26 system as a complex (Bromo-complex) of all components. The test compounds were administered intraperitoneally on days 1, 5 and 9 (relative to tumor implant doses). The mice were weighed and deaths recorded on a regular basis for 30 days. The median survival times for treated (T)/control (C) animals were calculated. The positive control compound was Cisplatin. If T/C X 100 (%) is 130 or over, the tested compound is considered to have significant anti-tumor activity.
# as §2
# [2] = system: lymphocytic leukemia P388; experiment: Lymphocytic Leukemia P388 Test; type: in vivo, BDF1 mice; conditions: Table IX
# Description: as §1
# The animals used were BDF1 mice, all of one sex, weighing a minimum of 17 g and all within a 3 g weight range. There were 5 or 6 mice per test group. The tumor transplant was by intraperitoneal injection of 0.5 ml of dilute ascitic fluid containing 10^6 cells of lymphocytic leukemia P388. LL-E33288 antibiotics were tested in the P388 system both as the individual β1-Br and […] components and as a complex of all components (Bromo-complex). The test compounds were administered intrapertioneally at a volume of 0.5 ml in 0.2% Klucel in normal saline on days 1, 5 and 9 (relative to tumor inoculation) at the indicated doses. The mice were weighed and the survivors recorded on a regular basis for 30 days. The median survival time and the ratio of survival time for treated (T)/control (C) animals were calculated. The positive control compound was Cisplatin given as an intraperitioneal injection in 0.5 ml of 0.2% Klucel on days 1, 5 and 9 at the indicated doses.
# If T/C X 100 (%) is 125 or over, the tested compound is considered to have significant anti-tumor activity.
# as §2
# [3] = Test 1, dose .00015 mg/kg, control 13 days
# [4] = Test 1, dose .0003 mg/kg, control 13 days
# [5] = Test 1, dose .0006 mg/kg, control 13 days
# [6] = Test 1, dose .00125 mg/kg, control 13 days
# [7] = Test 1, dose .0025 mg/kg, control 13 days
# [8] = Test 1, dose .005 mg/kg, control 13 days
# [9] = Test 2, dose - .00125 mg/kg, control 11 days
# [10] = Test 2, dose .00015 mg/kg, control 11 days
# [11] = Test 2, dose .0003 mg/kg, control 11 days
# [12] = Test 2, dose .0006 mg/kg, control 11 days
# [13] = Test 2, dose .0025 mg/kg, control 11 days
# [14] = Test 2, dose .005 mg/kg, control 11 days
# [15] = Test 2, dose .01 mg/kg, control 11 days
compound,measurement,setting,value
CCN[C@H]1CO[C@@H](O[C@H]2[C@H](O[C@H]3C#CC=CC#C[C@@]4(O)CC(=O)C(NC(=O)OC)=C3/C4=C\CSSSC)O[C@H](C)[C@@H](NO[C@H]3C[C@H](O)[C@H](SC(=O)c4c(C)c(I)c(O[C@@H]5O[C@@H](C)[C@H](O)[C@@H](OC)[C@H]5O)c(OC)c4OC)[C@@H](C)O3)[C@@H]2O)C[C@@H]1OC (stereo in doubt) [LL-E33288γ1-I],Median Survival,[1]; dose .0006 mg/kg,10 days
same,T/C x 100,[1]; dose .0006 mg/kg,111%
same,Median Survival,[1]; dose .0012 mg/kg,10.5 days
same,T/C x 100,[1]; dose .0012 mg/kg,117%
same,Median Survival,[1]; dose .0025 mg/kg,11 days
same,T/C x 100,[1]; dose .0025 mg/kg,122%
same,Median Survival,[1]; dose .005 mg/kg,14 days
same,T/C x 100,[1]; dose .005 mg/kg,156%
same,Median Survival,[1]; dose .01 mg/kg,8 days
same,T/C x 100,[1]; dose .01 mg/kg,89%
same,Median Survival,melanotic melanoma B16; dose .00007 mg/kg,30.5 days
same,T/C x 100,melanotic melanoma B16; dose .00007 mg/kg,179%
same,Median Survival,melanotic melanoma B16; dose .00015 mg/kg,33.5 days
same,T/C x 100,melanotic melanoma B16; dose .00015 mg/kg,197%
same,Median Survival,melanotic melanoma B16; dose .0003 mg/kg,35.5 days
same,T/C x 100,melanotic melanoma B16; dose .0003 mg/kg,209%
same,Median Survival,melanotic melanoma B16; dose .0006 mg/kg,42.5 days
same,T/C x 100,melanotic melanoma B16; dose .0006 mg/kg,250%
same,Median Survival,melanotic melanoma B16; dose .00125 mg/kg,27 days
same,T/C x 100,melanotic melanoma B16; dose .00125 mg/kg,159%
same,Median Survival,melanotic melanoma B16; dose .0025 mg/kg,26.5 days
same,T/C x 100,melanotic melanoma B16; dose .0025 mg/kg,156%
same,Median Survival,"Colon 26 tumor; dose ,0006 mg/kg",23.5 days
same,T/C x 100,"Colon 26 tumor; dose ,0006 mg/kg",127%
same,Median Survival,Colon 26 tumor; dose .00007 mg/kg,17 days
same,T/C x 100,Colon 26 tumor; dose .00007 mg/kg,92%
same,Median Survival,Colon 26 tumor; dose .00015 mg/kg,17.5 days
same,T/C x 100,Colon 26 tumor; dose .00015 mg/kg,95%
same,Median Survival,Colon 26 tumor; dose .0003 mg/kg,20 days
same,T/C x 100,Colon 26 tumor; dose .0003 mg/kg,108%
same,Median Survival,Colon 26 tumor; dose .00125 mg/kg,22.5 days
same,T/C x 100,Colon 26 tumor; dose .00125 mg/kg,122%
same,Median Survival,Colon 26 tumor; dose .0025 mg/kg,27 days
same,T/C x 100,Colon 26 tumor; dose .0025 mg/kg,146%
same,Median Survival,Colon 26 tumor; dose .005 mg/kg,25.5 days
same,T/C x 100,Colon 26 tumor; dose .005 mg/kg,138%
same,Median Survival,Colon 26 tumor; dose .01 mg/kg,11 days
same,T/C x 100,Colon 26 tumor; dose .01 mg/kg,59%
same,Median Survival,[2]; [3],15 days
same,T/C x 100,[2]; [3],115%
same,Median Survival,[2]; [4],15.5 days
same,T/C x 100,[2]; [4],119%
same,Median Survival,[2]; [5],18 days
same,T/C x 100,[2]; [5],138%
same,Median Survival,[2]; [6],18.5 days
same,T/C x 100,[2]; [6],142%
same,Median Survival,[2]; [7],22 days
same,T/C x 100,[2]; [7],169%
same,Median Survival,[2]; [8],>25.5 days
same,T/C x 100,[2]; [8],>196%
same,Median Survival,[2]; [9],18.5 days
same,T/C x 100,[2]; [9],168%
same,Median Survival,[2]; [10],14 days
same,T/C x 100,[2]; [10],127%
same,Median Survival,[2]; [11],14 days
same,T/C x 100,[2]; [11],127%
same,Median Survival,[2]; [12],16 days
same,T/C x 100,[2]; [12],145%
same,Median Survival,[2]; [13],22.5 days
same,T/C x 100,[2]; [13],205%
same,Median Survival,[2]; [14],18 days
same,T/C x 100,[2]; [14],164%
same,Median Survival,[2]; [15],11 days
same,T/C x 100,[2]; [15],100%
